These results are taken from US11548900B2, “Oxazino-quinazoline and oxazino-quinoline type compound, preparation method and uses thereof” (BEIJING SCITECH-MQ PHARMACEUTICALS LIMITED, priority 2018, dated 2023).

By IC50 is commonly meant the concentration that inhibits the measured activity by half.

In this assay the target is HER2 kinase (Homo sapiens (Human), UniProt P04626). The assay can be described thus: Inhibition of HER2 kinase activity (ULight-labeled PolyGT substrate). To be noted: HER2 kinase 10 nM, ATP 10 μM, 2 hours. The class given is biochemical. How it is done:
The assay for the inhibition of EGFR and HER2 kinase activity by small molecular compounds was carried out using the method as follows:
1) Dilution of the compounds
In a 96-well plate a, the compounds were diluted with DMSO using a 3-fold gradient dilution to form 11 concentrations, the 12th concentration is pure DMSO (as a positive control); and in a new 96-well plate b the above solutions were diluted 25 times with ultrapure water (DMSO concentration is 4%).
2) Transferring the compounds to 384-well plate
The compound solutions diluted with ultrapure water in the 96-well plate b above was transferred to the corresponding wells of a 384-well plate in duplicate.
3) Addition of 4×kinase solution: 2.5 μl of the above 4× kinase solution was taken using multichannel pipette and added to the corresponding reaction wells of the 384-well plate, mixed well and pre-reacted at room temperature for 5 minutes.
4) Addition of 2×substrate/ATP mixed solution: 5 μl of the above 2×substrate/ATP mixed solution was taken using multichannel pipette and added to the corresponding reaction wells of the 384-well plate.
5) Negative control: negative control wells were set in the 384-well plate, and 2.5 μl 4×substrate, 2.5 μl 4×enzyme solution, 2.5 μl 1×Kinase Assay Buffer and 2.5 μl ultrapure water containing 4% DMSO were added to each well.
6) Mixed by centrifugation and kept at room temperature for 2 hours in the dark.
7) Termination of the enzymatic reaction:
5 μl of the above 4× stop solution was pipetted to the corresponding wells of the 384-well plate, centrifuged and mixed, and reacted at room temperature for 5 minutes.
5 μl of the above 4× detection solution was pipetted into the corresponding wells of the 384-well plate, centrifuged and mixed, and reacted at room temperature for 1 hour.
9) The 384-well plate was placed into a microplate reader and the signal was detected using the corresponding program.
10) IC50 analysis: Well reading value=10000*EU665 value/EU615 value Inhibition rate=(reading value of positive control well−reading value of experimental well)/(reading value of positive control well−reading value of negative control well)*100% Corresponding IC50s can be calculated by entering the drug concentrations and the corresponding inhibition rates into GraphPad Prism 5.
Conditions of experiment for screening HER2 kinase inhibitory molecules:
The final concentration of HER2 kinase in the reaction system is 10 nM, the final concentration of ATP is 10 μM, the final concentration of substrate ULight™-labeled PolyGT is 100 nM, and the enzymatic reaction time is 2 hours.
The maximum final concentration of the compound in the reaction system is 2.5 μM, 11 concentrations were made with a 3-fold gradient dilution, and the minimal final concentration is 0.042 nM. The final concentration of DMSO is 1%.

Molecules are shown by their SMILES.

Chain of HER2 kinase (P04626 23-1255): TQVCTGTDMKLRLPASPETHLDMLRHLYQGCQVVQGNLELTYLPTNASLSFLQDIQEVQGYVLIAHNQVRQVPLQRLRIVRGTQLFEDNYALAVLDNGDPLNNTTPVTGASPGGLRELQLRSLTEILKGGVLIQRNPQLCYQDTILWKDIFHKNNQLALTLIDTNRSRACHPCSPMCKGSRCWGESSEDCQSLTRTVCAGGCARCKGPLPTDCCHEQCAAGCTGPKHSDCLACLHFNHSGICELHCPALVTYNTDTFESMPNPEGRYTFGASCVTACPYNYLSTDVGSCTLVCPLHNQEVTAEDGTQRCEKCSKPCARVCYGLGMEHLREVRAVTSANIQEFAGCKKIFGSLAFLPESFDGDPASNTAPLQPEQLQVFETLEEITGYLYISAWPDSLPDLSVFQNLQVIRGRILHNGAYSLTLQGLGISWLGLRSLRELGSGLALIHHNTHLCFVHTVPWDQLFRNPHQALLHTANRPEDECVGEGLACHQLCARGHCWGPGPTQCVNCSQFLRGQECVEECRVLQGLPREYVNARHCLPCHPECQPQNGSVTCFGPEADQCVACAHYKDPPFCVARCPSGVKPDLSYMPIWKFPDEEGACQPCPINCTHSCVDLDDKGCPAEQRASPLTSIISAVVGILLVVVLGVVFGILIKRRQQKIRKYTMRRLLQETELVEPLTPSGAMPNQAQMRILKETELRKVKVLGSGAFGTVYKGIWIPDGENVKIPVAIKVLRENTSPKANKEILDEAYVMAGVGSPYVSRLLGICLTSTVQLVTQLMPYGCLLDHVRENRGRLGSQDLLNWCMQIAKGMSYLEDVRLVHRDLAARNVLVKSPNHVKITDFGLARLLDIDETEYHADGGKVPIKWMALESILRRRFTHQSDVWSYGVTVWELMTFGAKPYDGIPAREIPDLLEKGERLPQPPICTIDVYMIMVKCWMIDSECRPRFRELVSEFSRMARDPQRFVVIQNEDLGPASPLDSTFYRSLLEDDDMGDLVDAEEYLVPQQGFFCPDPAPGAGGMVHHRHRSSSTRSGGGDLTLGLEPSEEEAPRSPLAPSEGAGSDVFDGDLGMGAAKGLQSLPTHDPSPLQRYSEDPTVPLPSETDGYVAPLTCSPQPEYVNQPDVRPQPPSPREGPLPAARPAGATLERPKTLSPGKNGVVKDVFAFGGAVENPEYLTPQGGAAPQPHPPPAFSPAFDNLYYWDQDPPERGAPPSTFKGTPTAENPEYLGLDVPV

Compound `C=CC(=O)N1CCOc2c1ccc1ncnc(Nc3ccc(Oc4cccc(C(F)(F)F)c4)cc3)c21` [Example 1, 1-(10-((4-(3-(trifluoromethyl)phenoxy)phenyl)amino)-2,3-dihydro-4H-[1,4]oxazino[2,3-f]quinazolin-4-yl)prop-2-en-1-one] registered an IC50 of at most 0.05 µM.
`C=CC(=O)N1CCOc2c1ccc1ncnc(Nc3ccc(Oc4cccc(C)c4)cc3)c21` [Example 5, 1-(10-((4-(m-tolyloxy)phenyl)amino)-2,3-dihydro-4H-[1,4]oxazino[2,3-f]quinazolin-4-yl)prop-2-en-1-one] yielded an IC50 of at most 0.05 µM.
Consider `C=CC(=O)N1CCOc2c1ccc1ncnc(Nc3ccc(Oc4cccc(Cl)c4)cc3)c21` [Example 6, 1-(10-((4-(3-chlorophenoxy)phenyl)amino)-2,3-dihydro-4H-[1,4]oxazino[2,3-f]quinazolin-4-yl)prop-2-en-1-one], for which the IC50 is at most 0.05 µM.
As for `C=CC(=O)N1CCOc2c1ccc1ncnc(Nc3ccc(Oc4cccc(F)c4)cc3)c21` [Example 7, 1-(10-((4-(3-fluorophenoxy)phenyl)amino)-2,3-dihydro-4H-[1,4]oxazino[2,3-f]quinazolin-4-yl)prop-2-en-1-one], the figure is at most 0.05 µM; as for `C=CC(=O)N1CCOc2c1ccc1ncnc(Nc3ccc(Oc4ccccc4F)cc3)c21` [Example 8, 1-(10-((4-(2-fluorophenoxy)phenyl)amino)-2,3-dihydro-4H-[1,4]oxazino[2,3-f]quinazolin-4-yl)prop-2-en-1-one], at most 0.05 µM.
As for `C=CC(=O)N1CCOc2c1ccc1ncnc(Nc3ccc(Oc4ccc(F)cc4)cc3)c21` [Example 9, 1-(10-((4-(4-fluorophenoxy)phenyl)amino)-2,3-dihydro-4H-[1,4]oxazino[2,3-f]quinazolin-4-yl)prop-2-en-1-one], the IC50 is at most 0.05 µM.
The same measure for `C=CC(=O)N1CCOc2c1ccc1ncnc(Nc3ccc(Oc4ccc(Cl)cc4)cc3)c21` [Example 10, 1-(10-((4-(4-chlorophenoxy)phenyl)amino)-2,3-dihydro-4H-[1,4]oxazino[2,3-f]quinazolin-4-yl)prop-2-en-1-one]: at most 0.05 µM; for `C=CC(=O)N1CCOc2c1ccc1ncnc(Nc3ccc(Oc4ccccc4OC)cc3)c21` [Example 11, 1-(10-((4-(2-methoxyphenoxy)phenyl)amino)-2,3-dihydro-4H-[1,4]oxazino[2,3-f]quinazolin-4-yl)prop-2-en-1-one]: at most 0.05 µM.
The same measure for `C=CC(=O)N1CCOc2c1ccc1ncnc(Nc3ccc(Oc4ccccn4)cc3)c21` [Example 12, 1-(10-((4-(pyridin-2-yloxy)phenyl)amino)-2,3-dihydro-4H-[1,4]oxazino[2,3-f]quinazolin-4-yl)prop-2-en-1-one]: at most 0.05 µM; for `C=CC(=O)N1CCOc2c1ccc1ncnc(Nc3ccc(Oc4cccnc4)cc3)c21` [Example 13, 1-(10-((4-(pyridin-3-yloxy)phenyl)amino)-2,3-dihydro-4H-[1,4]oxazino[2,3-f]quinazolin-4-yl)prop-2-en-1-one]: at most 0.05 µM.
As for `C=CC(=O)N1CCOc2c1ccc1ncnc(Nc3ccc(Oc4cccc(OC)c4)cc3)c21` [Example 14, 1-(10-((4-(3-methoxyphenoxy)phenyl)amino)-2,3-dihydro-4H-[1,4]oxazino[2,3-f]quinazolin-4-yl)prop-2-en-1-one], the figure is at most 0.05 µM; as for `C=CC(=O)N1CCOc2c1ccc1ncnc(Nc3ccc(Oc4nccs4)cc3)c21` [Example 15, 1-(10-((4-(thiazol-2-yloxy)phenyl)amino)-2,3-dihydro-4H-[1,4]oxazino[2,3-f]quinazolin-4-yl)prop-2-en-1-one], at most 0.05 µM; as for `C=CC(=O)N1CCOc2c1ccc1ncnc(Nc3ccc(Oc4ccccc4)c(F)c3)c21` [Example 16, 1-(10-((3-fluoro-4-phenoxyphenyl)amino)-2,3-dihydro-4H-[1,4]oxazino[2,3-f]quinazolin-4-yl)prop-2-en-1-one], at most 0.05 µM.
Compound `C=CC(=O)N1CCOc2c1ccc1ncnc(Nc3ccc(Oc4ccccc4)c(Cl)c3)c21` [Example 17, 1-(10-((3-chloro-4-phenoxyphenyl)amino)-2,3-dihydro-4H-[1,4]oxazino[2,3-f]quinazolin-4-yl)prop-2-en-1-one] came in with an IC50 of at most 0.05 µM.
The same measure for `C=CC(=O)N1CCOc2c1ccc1ncnc(Nc3ccc(OCc4ccc(F)cc4)cc3)c21` [Example 18, 1-(10-((4-((4-fluorobenzyl)oxy)phenyl)amino)-2,3-dihydro-4H-[1,4]oxazino[2,3-f]quinazolin-4-yl)prop-2-en-1-one]: at most 0.05 µM; for `C=CC(=O)N1CCOc2c1ccc1ncnc(Nc3ccc(OCc4cccc(F)c4)cc3)c21` [Example 19, 1-(10-((4-((3-fluorobenzyl)oxy)phenyl)amino)-2,3-dihydro-4H-[1,4]oxazino[2,3-f]quinazolin-4-yl)prop-2-en-1-one]: at most 0.05 µM.
The same measure for `C=CC(=O)N1CCOc2c1ccc1ncnc(Nc3ccc(OCc4cccc(C(F)(F)F)c4)cc3)c21` [Example 20, 1-(10-((4-((3-trifluoromethylbenzyl)oxy)phenyl)amino)-2,3-dihydro-4H-[1,4]oxazino[2,3-f]quinazolin-4-yl)prop-2-en-1-one]: at most 0.05 µM; for `C=CC(=O)N1CCOc2c1ccc1ncnc(Nc3ccc(OCc4ccccn4)cc3)c21` [Example 21, 1-(10-((4-(pyridin-2-ylmethoxy)phenyl)amino)-2,3-dihydro-4H-[1,4]oxazino[2,3-f]quinazolin-4-yl)prop-2-en-1-one]: at most 0.05 µM; for `C=CC(=O)N1CCOc2c1ccc1ncnc(Nc3ccc(OCc4cccs4)cc3)c21` [Example 22, 1-(10-((4-(thiophen-2-ylmethoxy)phenyl)amino)-2,3-dihydro-4H-[1,4]oxazino[2,3-f]quinazolin-4-yl)prop-2-en-1-one]: at most 0.05 µM.
The same measure for `C=CC(=O)N1CCOc2c1ccc1ncnc(Nc3ccc(OCc4nccs4)cc3)c21` [Example 23, 1-(10-((4-(thiazol-2-ylmethoxy)phenyl)amino)-2,3-dihydro-4H-[1,4]oxazino[2,3-f]quinazolin-4-yl)prop-2-en-1-one]: at most 0.05 µM.
For `C=CC(=O)N1CCOc2c1ccc1ncnc(Nc3ccc(SCc4ccccc4)cc3)c21` [Example 24, 1-(10-((4-(benzylthio)phenyl)amino)-2,3-dihydro-4H-[1,4]oxazino[2,3-f]quinazolin-4-yl)prop-2-en-1-one], the IC50 is at most 0.05 µM.
As for `C=CC(=O)N1CCOc2c1ccc1ncnc(Nc3ccc(OCc4cccc(F)c4)c(C(F)(F)F)c3)c21` [Example 25, 1-(10-((4-((3-fluorobenzyl)oxy)-3-(trifluoromethyl)phenyl)amino)-2,3-dihydro-4H-[1,4]oxazino[2,3-f]quinazolin-4-yl)prop-2-en-1-one], the figure is at most 0.05 µM; as for `C=CC(=O)N1CCOc2c1ccc1ncnc(Nc3ccc(OCc4cccc(F)c4)c(OC)c3)c21` [Example 26, 1-(10-((4-((3-fluorobenzyl)oxy)-3-(methoxy)phenyl)amino)-2,3-dihydro-4H-[1,4]oxazino[2,3-f]quinazolin-4-yl)prop-2-en-1-one], at most 0.05 µM; as for `C=CC(=O)N1CCOc2c1ccc1ncnc(Nc3ccc(OCc4cccc(F)c4)c(F)c3)c21` [Example 27, 1-(10-((4-((3-fluorobenzyl)oxy)-3-fluorophenyl)amino)-2,3-dihydro-4H-[1,4]oxazino[2,3-f]quinazolin-4-yl)prop-2-en-1-one], at most 0.05 µM.
The same measure for `C=CC(=O)N1CCOc2c1ccc1ncnc(Nc3ccc(Sc4ccc(F)cc4)cc3)c21` [Example 28, 1-(10-((4-((4-fluorophenyl)thio)phenyl)amino)-2,3-dihydro-4H-[1,4]oxazino[2,3-f]quinazolin-4-yl)prop-2-en-1-one]: at most 0.05 µM; for `C=CC(=O)N1CCOc2c1ccc1ncnc(Nc3ccc(Oc4ccccc4)cc3F)c21` [Example 29, 1-(10-((2-fluoro-4-phenoxyphenyl)amino)-2,3-dihydro-4H-[1,4]oxazino[2,3-f]quinazolin-4-yl)prop-2-en-1-one]: at most 0.05 µM.
The same measure for `C=CC(=O)N1CCOc2c1ccc1ncnc(Nc3ccc(Oc4ccccc4OCCN(C)C)cc3)c21` [Example 30, 1-(10-((4-(2-(2-(dimethylamino)ethoxy)phenoxy)phenyl)amino)-2,3-dihydro-4H-[1,4]oxazino[2,3-f]quinazolin-4-yl)prop-2-en-1-one]: at most 0.05 µM.
